Experimental data from patent US3971814A, “Benzo(b)thiophene derivatives” (priority 1972, dated 1976).
Read-outs that look alike come from different tables or passages of the source.

What was measured:
[1] = system: Yeast Edema of the Rat Paw; assay: Yeast edema and determination of pain threshold in the rat paw; assay type: in vivo; conditions: 3 h
Protocol: test animals are male rats (SIV 50) weighing 100 to 180 g. […] 10 animals belonged to each dosage group.
The volume of the paw is determined according to the method described by Enders and Heidbrink, the pain threshold according to that described by Randall and Selitto (Arch. Int. Pharmacodyn CXI: 409, 1957).
Following initial measurements, […] of a 5% suspension of dried yeast is injected subplantarly into the right paw and the test substances are administered immediately. The blank control group is given Tragacanth mucilage only. After 3 hours the pain threshold and the volume of the paw are determined again.
The mean value of the increase in paw volume of the animals of the blank control after 3 hours is rated 100%, and the mean value of the increase in paw volume of the animals of the substance groups expressed as a percentage thereof. Pain threshold after 3 hours reflects the increase or decrease in percent, compared to the initial value.
In order to be able to calculate the ED50 according to the method by Lichtfield and Wilcoxon (J.P.E.T. 96:99, 1949), those animals in a dose group are considered protected when the paw swelling was at least 40% less than that of the blank control.

[2] = system: Carrageenin Edema of the Rat Paw; assay: Carrageenin edema of the rat paw; assay type: in vivo
Protocol: test animals used are the same as stated under Example B and up to the initial measurement, the procedure corresponded to that described under this example.
After an initial measurement, the test substances are administered and after 60 minutes a 1% Carrageenin suspension is injected subplantarly (0.1 ml/paw). After 60 and 180 minutes the paw volume is again determined. Here, too, the blank control group was treated with the carrier alone.
The increase in the volume of the paw after 60 minutes is considered as the first phase of the biphase edema and that after 180 minutes, as compared to the 60-minute-value, as the second phase. Moreover, the total increase of the paw edema within 180 minutes, as compared to the initial value, is also determined.
Determination of the influence exerted by the substances upon the development of the paw edema and calculation of the ED50 are done as under Example B.

[3] = system: Kaolin Edema of the Rat Paw; assay: Kaolin edema of the rat paw; assay type: in vivo; conditions: for 60 min. (paw edema) / 120 min. (paw edema) / 180 min. (paw edema): ig., section K
Protocol: test animals used are the same as stated under Example B and up to the beginning of the test, the procedure corresponded to that described under this example.
After an initial measurement, a sterile 25% kaolin suspension was injected (0.05 ml/paw) subplantarly. The test substances are administered immediately, and after 60, 120, and 180 minutes the paw volume is again determined.
Evaluation of the tests was performed as stated under Example C, and the results so obtained presented below: […]

Granulation Tissue = assay: Cotton-pellet test (granulation tissue); assay type: in vivo; conditions: rat
Protocol: test animals are male rats (SIV 50) weighing 110 to 200 g. All test animals are kept fasting for 16 to 18 hours prior to the implantation of the pellets; after that food and water were available ad libitum. Each dose level of the chemical tested was administered to 12 animals. The substances were suspended in 1% Tragacanth mucilage and administered intragastrically by means of a stomach tube. The substances to be investigated and the control suspensions are administered once on the operating day following operation, and twice a day on the following 6 days (at intervals of 6 to 8 hours). The type of application and volume of liquid corresponded to that under B.
Under light ether anesthesia 4 sterile cotton pellets were implanted under the skin on the back of the animal. The weight of one pellet was 50 mg ± 0.5 mg. After 7 days treatment, the animals were sacrificed, the pellets removed with the granulation tissue, weighed and then dried in the incubator at +80°C to constant weight. The average dry weight of the granulation tissue of the control group was rated 100%, and deviations of the mean weights of the group treated with the test substance determined as a percentage thereof.
The weight of the animals is measured daily throughout the tests, and the percental increase determined. At the end of some tests, moreover, the suprarenal glands are removed and their weight determined.

Granuloma Pouch = assay: Granuloma pouch test; assay type: in vivo; conditions: rat
Protocol: Under light ether anesthesia 25 ml of air are injected under the shaved skin of the back. 0.5 ml of croton oil/animal (0.05%) are injected into the pouch formed by the air, and evenly distributed over the back by turning the animal.
On the third day croton oil (3%, 0.5 ml/animal) is again injected into this pouch.
The average dry weights of the granuloma pouches and the quantities of secretion of the groups subjected to treatment are then compared with those of the control group and the percental deviations calculated.
At the end of some tests the suprarenal glands are removed and the weight of these organs is also determined.
The weight of the animals is measured daily and the changes determined as a percentage.

male mice (NMRI) = assay: Hot-plate test (analgesia); assay type: in vivo; conditions: mouse, i.g., up to 400 mg/kg
Protocol: male mice (NMRI) weighing 18 to 28 g are used as test animals. The animals are placed on a copper plate constantly kept at 55°C, and the time is measured until they lick their forepaws.
Following 3 initial measurements, the test substances are administered intragastrically. Afterwards the measurements are repeated over a period of 2 hours at intervals of 30 minutes. Each dose is administered to 10 animals selected from groups of 15 animals following the initial measurements.
The test substances are administered as a suspension in 1% Tragacanth mucilage, the volume of liquid amounting to 2 ml/100 g of body weight.
For the purpose of statistical evaluation according to Litchfield and Wilcoxon, those animals in which the reaction time has been extended by at least 100% are considered protected.

[4] = Summary: calculated ED50 and therapeutic ratio; assay type: in vivo, rat; conditions: for ED50: Rattus norvegicus
Protocol: From the ED50 and LD50 (A) the following therapeutic ratios for this test are calculated: […]

in vivo = conditions: mouse
[5] = system: Arthritis Induced by the Freund Adjuvant; assay: Adjuvant arthritis; assay type: in vivo; conditions: rat, i.g., 2 × 60.0 mg/kg
Protocol: test animals used are the same as described under Example E; food and water is given ad libitum.
On the first day of the test a 0.8% suspension of Mycobacterium butyrium in paraffin (0.05 or 0.1 ml/paw) is injected subplantarly into the left hind paw of the animals. […] From the 19th to the 22nd day the animals showing a reaction are treated intragastrically with the test substances. The right paw having been marked above the ankle-joint, the volume is determined daily from the 19th to the 22nd or 23rd day, according to the process described under Example B.
The volume of liquid, as well as of the carrier administered, corresponded to that described in the above tests.

[6] = po, ig., section K, read-out: volume (paw, control = 100%)
[7] = ig., 2×50.0 mg/kg daily, section K
[8] = ig., 2×90.0 mg/kg daily, section K

CC(=O)Oc1ccccc1C(=O)O [Acetylsalicylic Acid, acetylsalicylic acid]
Volume (increase in paw volume, blank control = 100%) ([1]; i.g., 150.0 mg/kg): 134% | Pain Threshold (change vs initial value) ([1]; i.g., 300.0 mg/kg): -15% | Volume (increase in paw volume, blank control = 100%) ([1]; i.g., 300.0 mg/kg): 81% | 1st Phase (paw edema) ([2]; 100.0 mg/kg): 83% | 2nd Phase (paw edema) ([2]; 100.0 mg/kg): 114% | 3 Hrs. (total paw edema) ([2]; 100.0 mg/kg): 96% | 1st Phase (paw edema) ([2]; 200.0 mg/kg): 95% | 2nd Phase (paw edema) ([2]; 200.0 mg/kg): 60% | 3 Hrs. (total paw edema) ([2]; 200.0 mg/kg): 76% | 60 Minutes (paw edema) ([3]; 300.0 mg/kg): 156% | 120 Minutes (paw edema) ([3]; 300.0 mg/kg): 93% | 180 Minutes (paw edema) ([3]; 300.0 mg/kg): 82% | 60 min. (paw edema) ([3]; 300 mg/kg): 156% | 120 min. (paw edema) ([3]; 300 mg/kg): 93% | 180 min. (paw edema) ([3]; 300 mg/kg): 82% | Granulation Tissue % (Dry Weight) (Granulation Tissue; i.g., 2 × 200 mg/kg daily): 89% | Increase in Body Weight (Granulation Tissue; i.g., 2 × 200 mg/kg daily): not influenced | Granuloma Pouch Dry Weight (Granuloma Pouch; i.g., 2 × 150 mg/kg daily): 88% | Increase in Body Weight (Granuloma Pouch; i.g., 2 × 150 mg/kg daily): not influenced | Secretion (Granuloma Pouch; i.g., 2 × 150 mg/kg daily): 121% | Notes (analgesic activity) (male mice (NMRI)): ineffective | ED50 [4]: 192 mg/kg | therapeutic ratio ([4]; from ED50 and LD50 (A)): 10.7

COC(=N)c1sc2ccccc2c1O [Example 1, Methyl 3-Hydroxy-Benzo[b]Thiopene-2-Carboximidate]
change in vivo at 75 mg/kg ([1]; po, ig., 75 mg/kg, section K (control -23)): -10% | response vs control in vivo at 75 mg/kg ([1]; po, ig., 75 mg/kg, section K (control pain -23), read-out: volume (paw, control = 100%)): 32% | LD50 (in vivo; po): > 1600 mg/kg

COCCOC(=N)c1sc2ccccc2c1O [Example 10]
change in vivo at 200 mg/kg ([1]; po, ig., section K): -49% | response vs control in vivo at 200 mg/kg [1, 6]: 73% | change in vivo at 250 mg/kg ([1]; po, ig., 250 mg/kg, section K (control -35)): -30% | response vs control in vivo at 250 mg/kg ([1]; po, ig., 250 mg/kg, section K, read-out: volume (paw, control = 100%)): 33% | 60 min. (paw edema) ([3]; 200 mg/kg): 67% | 120 min. (paw edema) ([3]; 200 mg/kg): 47% | 180 min. (paw edema) ([3]; 200 mg/kg): 46% | LD50 (in vivo; po): ~1600 mg/kg

CCOCCOC(=N)c1sc2ccccc2c1O [Example 11]
change in vivo at 200 mg/kg ([1]; po, ig., section K): 32% | response vs control in vivo at 200 mg/kg [1, 6]: 41% | 60 min. (paw edema) ([3]; 50 mg/kg): 40% | 120 min. (paw edema) ([3]; 50 mg/kg): 36% | 180 min. (paw edema) ([3]; 50 mg/kg): 56% | 60 min. (paw edema) ([3]; 100 mg/kg): 22% | 120 min. (paw edema) ([3]; 100 mg/kg): 27% | 180 min. (paw edema) ([3]; 100 mg/kg): 46% | LD50 (in vivo; po): > 1600 mg/kg

CN(C)CCNC(=N)c1sc2ccccc2c1O [Example 31]
response vs control in vivo at 200 mg/kg [1, 6]: 75% | LD50 (in vivo; po): > 1600 mg/kg | LD50 (in vivo; sc): > 800 mg/kg

N=C(NCCN1CCOCC1)c1sc2ccccc2c1O [Example 33]
change in vivo at 225 mg/kg ([1]; sc., 225 mg/kg, section K (control -10)): 34% | response vs control in vivo at 225 mg/kg ([1]; sc., 225 mg/kg, section K, read-out: volume (paw, control = 100%)): 46% | LD50 (in vivo; sc): ~1000 mg/kg

N=C(NCCN1CCCC1)c1sc2ccccc2c1O [Example 34]
response vs control in vivo at 125 mg/kg ([1]; sc., 125 mg/kg, section K, read-out: volume (paw, control = 100%)): 54% | granuloma pouch dry weight % (Granuloma Pouch; [7]): 79% | secretion % (Granuloma Pouch; [7]): 75% | increase in body weight % (Granuloma Pouch; ig., 2×50.0 mg/kg daily, section K, control 55): 51% | LD50 (in vivo; sc): ~600 mg/kg

CCOCCCNC(=N)c1sc2ccccc2c1O [Example 41]
change in vivo at 125 mg/kg ([1]; po, ig., 125 mg/kg, section K (control -9)): 22% | response vs control in vivo at 125 mg/kg ([1]; po, ig., 125 mg/kg, section K, read-out: volume (paw, control = 100%)): 51% | granulation tissue % dry weight (Granulation Tissue; ig., 2×150 mg/kg daily, section K): 90% | increase in body weight % (Granulation Tissue; ig., 2×150 mg/kg daily, section K, control 36): 29% | LD50 (in vivo; po): ~1600 mg/kg

CCCCC1C(=O)N(c2ccccc2)N(c2ccccc2)C1=O [Phenylbutazone, 4-n-Butyl-1,2-diphenyl-3,5-dioxo-pyrazolidine]
Volume (increase in paw volume, blank control = 100%) ([1]; i.g., 150.0 mg/kg): 74% | Volume (increase in paw volume, blank control = 100%) ([1]; i.g., 300.0 mg/kg): 67% | 1st Phase (paw edema) ([2]; 60.0 mg/kg): 114% | 2nd Phase (paw edema) ([2]; 60.0 mg/kg): 52% | 3 Hrs. (total paw edema) ([2]; 60.0 mg/kg): 77% | 1st Phase (paw edema) ([2]; 150.0 mg/kg): 81% | 2nd Phase (paw edema) ([2]; 150.0 mg/kg): 15% | 3 Hrs. (total paw edema) ([2]; 150.0 mg/kg): 38% | 60 Minutes (paw edema) ([3]; 90.0 mg/kg): 107% | 120 Minutes (paw edema) ([3]; 90.0 mg/kg): 100% | 180 Minutes (paw edema) ([3]; 90.0 mg/kg): 81% | Granulation Tissue % (Dry Weight) (Granulation Tissue; i.g., 2 × 90 mg/kg daily): 78% | Increase in Body Weight (Granulation Tissue; in vivo, 90 mg/kg): not influenced | Granuloma Pouch Dry Weight (Granuloma Pouch; i.g., 2 × 90 mg/kg daily): 84% | Secretion (Granuloma Pouch; i.g., 2 × 90 mg/kg daily): 96% | granuloma pouch dry weight % (Granuloma Pouch; [8]): 84% | secretion % (Granuloma Pouch; [8]): 96% | Increase in Body Weight (Granuloma Pouch; in vivo, 90 mg/kg): not influenced | increase in body weight % (Granuloma Pouch; in vivo, 90 mg/kg): 57% | Swelling [5]: 84% | ED50 [4]: 20.1 mg/kg
